Assay results published in paper PMC10991509, “A phase I study of ATR inhibitor gartisertib (M4344) as a single agent and in combination with carboplatin in patients with advanced solid tumours” (British Journal of Cancer, 2024).

Target: T1, UGT1A1 (Homo sapiens, UniProt P22309)
T1 construct: from tissue; host or cells: human liver microsomes
T1 sequence (P22309 26-533): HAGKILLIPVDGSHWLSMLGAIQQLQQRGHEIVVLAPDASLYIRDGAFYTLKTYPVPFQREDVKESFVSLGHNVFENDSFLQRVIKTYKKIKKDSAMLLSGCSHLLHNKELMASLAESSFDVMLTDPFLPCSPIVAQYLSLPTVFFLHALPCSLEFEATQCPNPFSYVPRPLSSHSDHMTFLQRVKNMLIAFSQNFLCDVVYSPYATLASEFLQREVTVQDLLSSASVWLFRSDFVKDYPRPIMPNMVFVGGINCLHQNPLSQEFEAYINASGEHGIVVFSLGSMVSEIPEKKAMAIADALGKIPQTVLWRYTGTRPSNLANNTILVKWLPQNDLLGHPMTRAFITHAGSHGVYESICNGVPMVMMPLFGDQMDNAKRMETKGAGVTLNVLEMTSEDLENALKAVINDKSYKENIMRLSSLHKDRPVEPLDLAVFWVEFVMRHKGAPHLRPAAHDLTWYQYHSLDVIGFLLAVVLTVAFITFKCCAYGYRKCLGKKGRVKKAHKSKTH
Assay: UGT1A1 inhibition in human liver microsomes
Format: in vitro ADME
Conditions: value (standard error)

Nc1nn2cc(F)cnc2c1C(=O)Nc1cncc(F)c1N1CCC(C(=O)N2CCN(C3COC3)CC2)CC1 [gartisertib, Gartisertib]
IC50: 8.36 µM
